Results from ChEMBL document CHEMBL1201862, “PubChem BioAssay data set” (2004).
Calls of active or inactive are those of the source.

Key:
[1] = target: T1, Small ubiquitin-related modifier 1 (Homo sapiens, UniProt P63165); experiment: inhibitors of SUMO1 partner interactions, dose response, biochemical, FRET (AID 624383); format: functional; conditions: read-out: IC50_Mean
[2] = target: T1, Small ubiquitin-related modifier 1; experiment: inhibitors of SUMO1 peptide binding, dose response, biochemical, fluorescence polarization, uHTS hits (AID 624382); format: functional; conditions: read-out: IC50_Mean
[3] = inhibitors of HIV Env-driven cell fusion, dose response, cherry-pick (AID 652057); format: functional, cell-based
[4] = inhibitors of clade B AD8 Env fusion, dose response, cell-based, cherry-pick (AID 652062); format: functional;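 further: luciferase signal from cell-cell fusion driven by HIV-1 clade B AD8 Env; potency is for inhibitors of fusion seen as a drop in luminescence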
[5] = ZM109 Env clade C HIV-1 fusion inhibitors, dose response, HeLa effector, CEM target cells, luciferase, cherry-pick (AID 652058); format: functional, cell-based
[6] = off-target signal loss in HeLa-CEM21 co-culture – HeLa F-luc CTL cells, cherry-picked, counter-screen for HIV-1 Env fusion inhibitor project, dose response (AID 652040); format: functional, cell-based;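 further: potency for signal decrease marking cytotoxic or nonspecific inhibition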
[7] = tested on: HeLa; experiment: HeLa cell cytotoxicity, dose response, cytotoxicity control, ATP luminescence, cherry-pick samples (AID 687004); format: functional, cell-based; conditions: Homo sapiens
[8] = Counterscreen for activators of the function of SWI/SNF related, matrix associated, actin dependent regulator of chromatin, subfamily a, member 2 (SMARCA2, BRM): Luminescence-based cell-based high throughput dose response assay to identify non-selective compounds using the VP16 reporter assay.; format: functional
[9] = target: SWI/SNF-related matrix-associated actin-dependent regulator of chromatin subfamily A member 2 (Homo sapiens, UniProt P51531); experiment: Luminescence-based cell-based high throughput dose response assay to identify activators of the function of SWI/SNF related, matrix associated, actin dependent regulator of chromatin, subfamily a, member 2 (SMARCA2, BRM).; format: functional
SWI/SNF-related matrix-associated actin-dependent regulator of chromatin subfamily A member 2, sequence (P51531 whole entry): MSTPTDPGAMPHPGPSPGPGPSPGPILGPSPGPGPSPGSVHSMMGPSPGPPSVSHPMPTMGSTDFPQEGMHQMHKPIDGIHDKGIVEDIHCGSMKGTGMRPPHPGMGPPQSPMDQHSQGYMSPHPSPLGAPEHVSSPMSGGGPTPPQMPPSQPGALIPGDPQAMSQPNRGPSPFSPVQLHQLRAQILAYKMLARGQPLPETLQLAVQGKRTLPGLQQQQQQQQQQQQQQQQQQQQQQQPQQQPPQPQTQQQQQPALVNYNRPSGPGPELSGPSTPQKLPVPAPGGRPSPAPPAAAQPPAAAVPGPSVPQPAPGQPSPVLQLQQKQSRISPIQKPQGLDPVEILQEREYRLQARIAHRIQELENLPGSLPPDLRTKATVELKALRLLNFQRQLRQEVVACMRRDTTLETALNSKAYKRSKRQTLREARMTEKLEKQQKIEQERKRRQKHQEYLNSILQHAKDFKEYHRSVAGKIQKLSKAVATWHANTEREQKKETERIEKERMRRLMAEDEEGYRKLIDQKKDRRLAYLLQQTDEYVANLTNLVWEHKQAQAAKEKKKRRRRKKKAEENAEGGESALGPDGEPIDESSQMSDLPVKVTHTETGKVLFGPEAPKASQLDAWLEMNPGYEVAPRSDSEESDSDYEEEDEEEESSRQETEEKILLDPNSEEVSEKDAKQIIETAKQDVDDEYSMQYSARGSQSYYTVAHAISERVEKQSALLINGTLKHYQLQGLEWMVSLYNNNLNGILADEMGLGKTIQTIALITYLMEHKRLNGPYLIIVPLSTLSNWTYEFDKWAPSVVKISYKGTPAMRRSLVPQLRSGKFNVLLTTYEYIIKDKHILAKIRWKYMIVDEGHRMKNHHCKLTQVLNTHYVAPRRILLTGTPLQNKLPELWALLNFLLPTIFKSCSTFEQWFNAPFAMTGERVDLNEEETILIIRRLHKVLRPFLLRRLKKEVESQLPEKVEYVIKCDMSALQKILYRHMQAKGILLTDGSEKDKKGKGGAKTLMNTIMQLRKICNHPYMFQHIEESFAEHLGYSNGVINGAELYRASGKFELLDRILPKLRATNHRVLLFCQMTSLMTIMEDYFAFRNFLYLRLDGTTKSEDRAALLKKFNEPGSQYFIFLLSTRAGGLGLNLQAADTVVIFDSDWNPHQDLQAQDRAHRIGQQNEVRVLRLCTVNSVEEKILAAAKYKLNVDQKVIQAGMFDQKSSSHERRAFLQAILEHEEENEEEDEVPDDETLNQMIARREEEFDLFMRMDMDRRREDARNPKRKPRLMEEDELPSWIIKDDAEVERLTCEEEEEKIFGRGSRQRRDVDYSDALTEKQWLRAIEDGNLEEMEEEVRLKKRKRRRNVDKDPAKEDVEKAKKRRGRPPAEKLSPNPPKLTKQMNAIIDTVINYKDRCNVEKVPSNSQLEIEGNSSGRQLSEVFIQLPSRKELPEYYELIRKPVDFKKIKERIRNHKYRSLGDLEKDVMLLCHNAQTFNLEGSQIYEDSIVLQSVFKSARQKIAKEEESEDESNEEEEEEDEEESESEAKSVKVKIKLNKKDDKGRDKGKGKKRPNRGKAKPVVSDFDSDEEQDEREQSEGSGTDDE

[10] = target: T2, Long-chain-fatty-acid--AMP ligase FadD28 (Mycobacterium tuberculosis, UniProt P9WQ59); experiment: Fluorescence polarization aasay to screen for inhibitors that compete for the binding of FadD28 to a bisubstrate Measured in Biochemical System Using Plate Reader - 2147-01_Inhibitor_Dose_CherryPick_Activity.; format: functional, Mycobacterium tuberculosis H37Rv
T2 sequence (P9WQ59 whole entry): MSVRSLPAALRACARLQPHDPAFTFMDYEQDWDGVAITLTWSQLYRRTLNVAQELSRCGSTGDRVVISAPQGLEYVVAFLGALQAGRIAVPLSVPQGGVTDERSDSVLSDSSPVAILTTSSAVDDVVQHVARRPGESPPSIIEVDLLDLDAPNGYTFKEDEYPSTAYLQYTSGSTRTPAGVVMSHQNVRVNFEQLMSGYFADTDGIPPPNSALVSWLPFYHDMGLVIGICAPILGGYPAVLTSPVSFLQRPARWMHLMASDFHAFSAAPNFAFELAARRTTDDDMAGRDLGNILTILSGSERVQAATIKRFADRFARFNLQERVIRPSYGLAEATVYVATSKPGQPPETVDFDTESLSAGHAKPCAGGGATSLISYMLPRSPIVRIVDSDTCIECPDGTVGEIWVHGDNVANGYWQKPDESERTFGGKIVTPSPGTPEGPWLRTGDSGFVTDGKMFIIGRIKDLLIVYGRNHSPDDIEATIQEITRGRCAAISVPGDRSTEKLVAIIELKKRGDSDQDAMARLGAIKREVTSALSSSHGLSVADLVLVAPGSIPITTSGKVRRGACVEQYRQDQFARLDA

[11] = miR-122 activators in hepatoma reporter cells, dose response, cell-based, Huh7 psiCHECK-miR122, Renilla luciferase, cherry-picked (AID 651956); format: functional;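 further: huh7 hepatoma cells stably carrying a psiCHECK-2 miR-122 sensor plasmid; renilla luciferase signal reporting endogenous miR-122 activity after 48 h compound exposure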
[12] = cells; format: functional, cell-based; conditions: HEK-CNG
[13] = target: T3, Galanin receptor type 3 (Homo sapiens, UniProt O60755); experiment: Fluorescence-based cell-based primary high throughput dose response assay to identify antagonists of the Galanin Receptor 3 (GalR3).; format: functional
T3 sequence (O60755 whole entry): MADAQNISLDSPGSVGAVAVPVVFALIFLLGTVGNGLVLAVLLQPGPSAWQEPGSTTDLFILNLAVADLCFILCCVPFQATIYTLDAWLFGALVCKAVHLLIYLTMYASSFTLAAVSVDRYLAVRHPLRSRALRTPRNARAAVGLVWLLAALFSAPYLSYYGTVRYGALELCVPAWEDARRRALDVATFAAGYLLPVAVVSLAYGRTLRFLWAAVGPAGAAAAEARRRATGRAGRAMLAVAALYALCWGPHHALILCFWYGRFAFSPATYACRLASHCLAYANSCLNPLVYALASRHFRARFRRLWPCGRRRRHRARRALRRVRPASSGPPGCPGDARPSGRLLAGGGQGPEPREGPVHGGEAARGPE

[14] = target: T4, Heat shock factor protein 1 (Mus musculus, UniProt P38532); experiment: inhibition of MG132-induced HSE-luciferase signal, confirmation, cell-based, NIH3T3, luminescence, dose retest (AID 2382); format: functional;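 further: NIH3T3 fibroblasts with HSF1-driven luciferase reporter stressed by proteasome inhibitor MG132; luminescence from HSF1-driven luciferase expression after 8 hours of MG132 stress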
T4 sequence (P38532 whole entry): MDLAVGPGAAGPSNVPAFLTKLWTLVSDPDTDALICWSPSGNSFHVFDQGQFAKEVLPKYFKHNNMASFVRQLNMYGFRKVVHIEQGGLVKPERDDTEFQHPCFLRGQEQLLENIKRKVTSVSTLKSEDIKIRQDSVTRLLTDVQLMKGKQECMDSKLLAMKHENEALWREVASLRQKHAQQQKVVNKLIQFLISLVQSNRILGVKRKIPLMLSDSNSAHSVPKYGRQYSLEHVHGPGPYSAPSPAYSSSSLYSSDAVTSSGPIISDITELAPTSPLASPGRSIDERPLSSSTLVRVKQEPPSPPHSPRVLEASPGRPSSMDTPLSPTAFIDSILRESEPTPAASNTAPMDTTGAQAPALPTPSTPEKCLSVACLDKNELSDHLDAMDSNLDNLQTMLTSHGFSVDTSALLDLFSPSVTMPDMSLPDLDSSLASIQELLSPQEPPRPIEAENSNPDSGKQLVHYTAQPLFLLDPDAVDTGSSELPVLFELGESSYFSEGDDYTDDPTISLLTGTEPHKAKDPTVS

[15] = target: T5, Calpain-2 catalytic subunit (Sus scrofa, UniProt P43367); experiment: pig calpain II inhibitor potency, dose response, biochemical, fluorogenic peptide substrate (AID 1420); format: functional
T5 sequence (P43367 whole entry): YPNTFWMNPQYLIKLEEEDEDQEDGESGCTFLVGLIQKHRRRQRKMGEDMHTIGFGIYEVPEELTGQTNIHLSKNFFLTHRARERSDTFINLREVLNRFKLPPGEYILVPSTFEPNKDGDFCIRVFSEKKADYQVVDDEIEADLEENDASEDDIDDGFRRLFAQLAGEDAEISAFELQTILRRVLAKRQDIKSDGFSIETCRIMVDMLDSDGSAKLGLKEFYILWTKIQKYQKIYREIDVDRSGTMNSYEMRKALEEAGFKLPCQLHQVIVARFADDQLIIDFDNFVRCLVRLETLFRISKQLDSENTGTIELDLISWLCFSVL

[16] = cells; format: functional, cell-based
[17] = cells; format: functional, cell-based; remark: listed apart in the source
[18] = CEM21 lymphoblast cell cytotoxicity, dose response, cytotoxicity control for viral fusion inhibitor project, CellTiter-Glo luminescence, cherry-picked (AID 652042); format: functional, cell-based;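 further: potency for signal decrease meaning cytotoxicity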
[19] = HEK293T cytotoxicity, dose response, cytotoxicity control for miR-122 modulator project, cell-based, inhibitor set, cherry-pick, set 2 (AID 720697); format: functional
[20] = cytotoxicity toward NIH3T3 fibroblasts, dose response, counter-screen, cell-based, ATP luminescence, mouse fibroblasts (AID 2010); format: functional;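 further: cells exposed to compound for about 90 hours before reading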
[21] = target: T6, Aminopeptidase N (Plasmodium falciparum FcB1/Columbia, UniProt O96935); experiment: P. falciparum M1AAP inhibitors, biochemical, fluorogenic H-Leu-NHMec substrate, 1536-well (AID 1445); design: species or system Plasmodium falciparum 3D7, 3D7
T6 sequence (O96935 whole entry): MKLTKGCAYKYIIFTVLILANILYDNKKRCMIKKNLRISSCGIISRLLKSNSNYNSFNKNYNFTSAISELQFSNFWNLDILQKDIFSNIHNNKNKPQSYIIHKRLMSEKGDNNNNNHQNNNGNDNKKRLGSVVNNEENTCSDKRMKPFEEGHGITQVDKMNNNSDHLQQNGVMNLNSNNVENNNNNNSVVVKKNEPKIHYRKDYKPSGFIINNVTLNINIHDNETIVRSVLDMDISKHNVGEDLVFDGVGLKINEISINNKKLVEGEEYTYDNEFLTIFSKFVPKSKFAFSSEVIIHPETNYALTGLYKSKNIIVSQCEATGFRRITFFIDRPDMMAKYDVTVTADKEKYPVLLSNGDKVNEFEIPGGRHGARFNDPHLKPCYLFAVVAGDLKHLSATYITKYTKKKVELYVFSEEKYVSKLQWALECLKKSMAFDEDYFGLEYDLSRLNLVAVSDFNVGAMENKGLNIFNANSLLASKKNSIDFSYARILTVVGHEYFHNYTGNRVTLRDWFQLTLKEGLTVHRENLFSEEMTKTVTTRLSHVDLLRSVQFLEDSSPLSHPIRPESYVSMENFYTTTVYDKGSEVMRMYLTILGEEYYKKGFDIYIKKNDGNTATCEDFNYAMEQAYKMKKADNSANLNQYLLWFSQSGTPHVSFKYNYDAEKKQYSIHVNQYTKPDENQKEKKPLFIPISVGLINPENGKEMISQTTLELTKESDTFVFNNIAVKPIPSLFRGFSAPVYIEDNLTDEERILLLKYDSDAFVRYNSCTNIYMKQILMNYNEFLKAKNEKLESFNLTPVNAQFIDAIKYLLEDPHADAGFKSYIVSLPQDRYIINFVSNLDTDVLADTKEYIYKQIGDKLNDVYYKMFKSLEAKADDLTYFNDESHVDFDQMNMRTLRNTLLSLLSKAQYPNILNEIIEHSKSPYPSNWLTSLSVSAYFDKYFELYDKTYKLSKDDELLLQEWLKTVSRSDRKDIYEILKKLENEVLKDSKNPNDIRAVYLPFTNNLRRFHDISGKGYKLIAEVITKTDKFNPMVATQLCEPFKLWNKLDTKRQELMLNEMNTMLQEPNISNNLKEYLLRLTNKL

[22] = inhibitors of intracellular T. cruzi replication, confirmation, NIH3T3 host cells, beta-gal luminescence (AID 2044); format: functional, cell-based;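 further: intracellular parasites grown in NIH/3T3 mouse fibroblasts as host cells; luminescent beta-galactosidase reporter signal from transgenic T. cruzi replicating inside host cells; inhibitors lower the luminescence signal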
[23] = target: T7, DNA repair protein RAD52 homolog (Homo sapiens, UniProt P43351); format: functional, biochemical
T7 sequence (P43351 whole entry): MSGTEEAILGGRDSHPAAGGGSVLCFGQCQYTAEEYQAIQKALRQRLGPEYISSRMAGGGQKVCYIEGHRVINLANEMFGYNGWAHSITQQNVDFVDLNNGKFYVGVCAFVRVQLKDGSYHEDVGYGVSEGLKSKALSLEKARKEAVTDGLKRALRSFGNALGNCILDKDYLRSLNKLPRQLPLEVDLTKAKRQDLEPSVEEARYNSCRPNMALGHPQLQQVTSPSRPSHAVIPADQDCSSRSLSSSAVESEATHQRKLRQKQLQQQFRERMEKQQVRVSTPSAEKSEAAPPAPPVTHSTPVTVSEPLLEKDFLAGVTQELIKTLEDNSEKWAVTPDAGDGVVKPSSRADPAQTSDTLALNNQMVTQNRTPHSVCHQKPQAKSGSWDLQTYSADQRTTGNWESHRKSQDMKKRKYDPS

T1 sequence (P63165 whole entry): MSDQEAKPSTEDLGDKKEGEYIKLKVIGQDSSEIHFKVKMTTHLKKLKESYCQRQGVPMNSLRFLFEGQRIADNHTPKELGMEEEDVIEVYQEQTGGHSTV

Structure (SMILES): Cn1cnnc1SCC(=O)Nc1ccc(OCc2ccccc2)cc1
- IC50 [1]: 32 µM (inactive)
- IC50 [2]: > 66.6 µM (inactive)

Structure (SMILES): COc1ccc(Cn2nnnc2C(c2cc3cccc(C)c3nc2O)N2CCOCC2)cc1 (stereo not drawn)
- AC50 [3]: 6.52 µM (active)
- AC50 [4]: 6.17 µM (active)
- AC50 [5]: 5.44 µM (active)
- AC50 [6]: 7.1 µM (active)

Structure (SMILES): COC(=O)C1=C(C)N(Cc2ccccc2)C(=S)N[C@H]1c1cccc(C(F)(F)F)c1
- AC50 [7]: > 52 µM (inactive)

Structure (SMILES): Cc1ccnc(Nc2nc3ccccc3s2)n1
- EC50 [8]: > 91.2 µM (inactive)
- EC50 [9]: > 91.2 µM (inactive)

Structure (SMILES): CCc1cccc2c(C(=O)COC(=O)c3cccc(S(=O)(=O)N(C)C4CCCCC4)c3)c[nH]c12
- AC50 [10]: 30.6 µM (active)

Structure (SMILES): Cc1cc(C)nc(NS(=O)(=O)c2ccc(NC(=S)NC(=O)C3CCCC3)cc2)n1
- AC50 [11]: 11.1 µM (active)

Structure (SMILES): COc1cc(CCC(=O)OCC(=O)Nc2sccc2C(N)=O)cc(OC)c1OC
- EC50 [12]: > 29.9 µM (inactive)
- IC50 [13]: 1.55 µM (active)

Structure (SMILES): N#Cc1c(N)nc2c3c(sc(=N)c2c1N)NC(=O)CC3c1ccccc1 (stereo not drawn)
- EC50 [14]: > 195 µM (not active)
- EC50 [12]: > 29.9 µM (inactive)
- IC50 [13]: > 29.9 µM (inactive)

Structure (SMILES): O=C(NCCc1ccccc1)c1cnc2n(c1=O)CCS2
- IC50 [15]: 24.2 µM (not active)
- IC50 [16]: > 29.9 µM (inactive)
- EC50 [17]: > 29.9 µM (inactive)

Structure (SMILES): NC(c1csc(NC(=O)Nc2cccc(Cl)c2)n1)c1ccccc1Cl (stereo not drawn)
- AC50 [3]: 11.9 µM (active)
- AC50 [4]: 28.5 µM (active)
- AC50 [18]: 16.4 µM (active)
- AC50 [5]: 16.2 µM (active)
- AC50 [6]: 29.4 µM (active)

Structure (SMILES): C[C@@H]1CN([C@@H](C)CO)S(=O)(=O)c2ccc(-c3ccc(C(=O)N(C)C)cc3)cc2O[C@@H]1CN(C)C(=O)C1CCC1
- AC50 [19]: 0.516 µM (active)
- AC50 [11]: 13.8 µM (active)

Structure (SMILES): O=C(CCC(=O)Nc1ccc(F)cc1)N/N=C/c1c[nH]c2ccccc12
- AC50 [10]: 49 µM (active)

Structure (SMILES): Cc1nc(NC(=N)N)nc2c(C)cccc12
- EC50 [8]: > 91.1 µM (inactive)
- EC50 [9]: > 10.1 µM (inactive)
- EC50 [20]: > 60 µM (not active)
- IC50 [21]: 47.6 µM (active)
- EC50 [22]: 0.371 µM (active)
- AC50 [23]: 1.4 µM (active)
